Measurements reported in US11884649B2, “IRE1α inhibitors and uses thereof” (The Regents of the University of California, priority 2020, dated 2024).

Experiments:
IRE1α* = biological target: T1, IRE1α* (Homo sapiens, UniProt O75460); experiment: In vitro kinase activity assay (IRE1α kinase inhibition); format: biochemical
T1 construct: human IRE1α (residues 547-977, IRE1α*) was expressed in SF9 insect cells; His6 (N); made in house; host or cells: Sf9 insect cells (Bac-to-Bac baculovirus)
Outline: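 His6-tagged human IRE1α cytosolic kinase/RNase domains (residues 547-977) from SF9 cells, preincubated 30 min with inhibitor (top 10 or 60 μM, three-fold dilutions) in pH 7.5 HEPES/MgCl2 buffer, then 10 μCi [γ-32P]ATP, 23 °C, 3 h. Filter-spot autoradiography; inhibition normalised to no-kinase and DMSO wells; IC50 from one-site fit.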

[1] = tested on: RIDD (IRE1α-dependent mRNA decay); experiment: Real-time PCR of RIDD mRNA targets in INS-1 cells overexpressing IRE1α (Dox); format: cell-based, rat; settings: 20 μM, 5 ng/mL Dox
Protocol: RNA Isolation, Quantitative Real-Time PCR, and Primers
INS-1 or isogenic IRE1α-overexpressing INS-1 cells were plated onto Poly-D-Lysine coated tissue culture plate and grown for 48 hrs. Inhibitors or DMSO were added to the media and incubated for 1 hour at 37° C. with 5% CO2 prior to addition of ER stress agents or Dox as indicated. RNA was isolated from whole cells using either QIAGEN RNeasy Mini kits or Trizol (Invitrogen) and reverse transcribed as above to obtain total cDNA. Then, XBP-1 primers were used to amplify an XBP-1 amplicon spanning the 26 nt intron from the cDNA samples in a regular 3-step PCR. Thermal cycles were: 5 min at 95° C., 30 cycles of 30 s at 95° C., 30 s at 60° C., and 1 min at 72° C., followed by 72° C. for 15 min, and hold at 4° C. Primers used for XBP-1 mRNA splicing were as follows: sense primer XBP1.3 S (5′ […]-3′ (SEQ ID NO:2)) and antisense primer XBP1.2AS (5′-[…]-3′ (SEQ ID NO:3)). PCR fragments were then digested by PstI, resolved on 3% agarose gels, stained with EtBr and quantified by densitometry using ImageJ (NIH). For standard mRNA detection, generally […] total RNA was reverse transcribed using the QuantiTect Reverse Transcription Kit (QIAGEN). For qPCR, we used SYBR green (QIAGEN) and StepOnePlus Real-Time PCR System (Applied Biosystems). Thermal cycles were: 5 min at 95° C., 40 cycles of 15 sec at 95° C., 30 sec at 60° C. Gene expression levels were normalized to Beta Actin. Primers used for qPCR of RIDD targets were as follows: Beta Actin Fwd: 5′-[…]-3′ (SEQ ID NO:4), Beta Actin Rev: 5′-[…]-3′ (SEQ ID NO:5), Insulin 1 Fwd: 5′-GTCCTCTGGGAGCCCAAG-3′ (SEQ ID NO:6), Insulin 1 Rev: 5′-ACAGAGCCTCCACCAGG-3′ (SEQ ID NO:7), Insulin 2 Fwd: 5′-ATCCTCTGGGAGCCCCGC-3′ (SEQ ID NO:8), Insulin 2 Rev: 5′-AGAGAGCTTCCACCAAG-3′ (SEQ ID NO:9), Blos1 Fwd: 5′-[…]-3′ (SEQ ID NO:10), and Blos1 Rev: 5′-[…]-3′ (SEQ ID NO:11).
Real-Time PCR (Q-PCR) used SYBR green and Step OnePlus Real-Time PCR System (Applied Biosystems). Thermal cycles were: 5 min at 95° C., 40 cycles of 15 s at 95° C., 30 s at 60° C. Gene expression levels were normalized to GAPDH. Q-PCR Sense/antisense primers used: Rat GAPDH, 5′-[…]-3′ (SEQ ID NO:14) and 5′-[…]-3′ (SEQ ID NO:15); Rat Ins1, 5′-GTCCTCTGGGAGCCCAAG-3′ (SEQ ID NO:6) and 5′-ACAGAGCCTCCACCAGG-3′ (SEQ ID NO:7); Rat Pdia4, 5′-CGTCTCGCCCTGATTCGT-3′ (SEQ ID NO:16) and 5′-[…]-3′ (SEQ ID NO:17); Rat Blos1, 5′-[…]-3′ (SEQ ID NO:18) and 5′-TGTCCAGTTCGATGCTCCG-3′ (SEQ ID NO:19).
Real-time PCR for FIGS. 34A-34F: Real-Time PCR (Q-PCR) used SYBR green and Step OnePlus Real-Time PCR System (Applied Biosystems). Thermal cycles were: 5 min at 95° C., 40 cycles of 15 s at 95° C., 30 s at 60° C. Gene expression levels were normalized to GAPDH. Q-PCR Sense/antisense primers used: Rat GAPDH, 5′-[…]-3′ (SEQ ID NO:20) and 5′-[…]-3′ (SEQ ID NO:21); Rat Ins1, 5′-GTCCTCTGGGAGCCCAAG-3′ (SEQ ID NO:6) and 5′-ACAGAGCCTCCACCAGG-3′ (SEQ ID NO:7); Rat Ins2, 5′-ATCCTCTGGGAGCCCCGC-3′ (SEQ ID NO:8) and 5′-AGAGAGCTTCCACCAAG-3′ (SEQ ID NO:9); Rat Pdia4, 5′-[…]-3′(SEQ ID NO:22) and 5′-[…]-3′ (SEQ ID NO:23); Rat Blos1, 5′-[…]-3′ (SEQ ID NO:18) and 5′-TGTCCAGTTCGATGCTCCG-3′ (SEQ ID NO:19).

T1 sequence (O75460 547-977): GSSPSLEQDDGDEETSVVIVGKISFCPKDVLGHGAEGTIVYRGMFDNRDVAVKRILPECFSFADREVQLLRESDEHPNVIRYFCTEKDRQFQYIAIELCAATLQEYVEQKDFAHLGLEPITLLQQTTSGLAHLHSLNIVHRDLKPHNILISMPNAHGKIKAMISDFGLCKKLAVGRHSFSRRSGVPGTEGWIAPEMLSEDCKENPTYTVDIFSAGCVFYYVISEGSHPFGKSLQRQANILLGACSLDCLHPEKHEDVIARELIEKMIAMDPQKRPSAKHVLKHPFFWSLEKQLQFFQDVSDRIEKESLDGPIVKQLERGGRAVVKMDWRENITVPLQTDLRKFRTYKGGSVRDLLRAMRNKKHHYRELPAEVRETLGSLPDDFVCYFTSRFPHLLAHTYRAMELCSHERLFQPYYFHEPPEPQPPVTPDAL

SMILES: O=S(=O)(CC(F)(F)F)Nc1ccc(Oc2ncccc2-c2ccnc(N[C@H]3CCCNC3)n2)c2ccccc12 (stereo in doubt) [PAIR1, 2,2,2-trifluoro-N-(4-(3-(2-(piperidin-3-ylamino)pyrimidin-4-yl)pyridin-2-yloxy)naphthalen-1-yl)ethanesulfonamide]
- IC50 (IRE1α*; IRE1α kinase inhibition, read-out: IC50 IRE1a): 25 nM
- mRNA decay substrates Blos1, Ins1 and Ins2 [1]: rescued

SMILES: O=S(=O)(CCC(F)(F)F)Nc1ccc(Oc2ncccc2-c2ccnc(NC3CCCNC3)n2)c2ccccc12 (stereo not shown) [KIRA9, 3,3,3-trifluoro-N-(4-(3-(2-(piperidin-3-ylamino)pyrimidin-4-yl)pyridin-2-yloxy)naphthalen-1-yl)propane-1-sulfonamide]
- Ki (IRE1α*; read-out: Inhibition of IRE1α*'s kinase activity, Ki): 160 nM
- mRNA decay substrates Blos1, Ins1 and Ins2 [1]: rescued
